Our source for the Km values is PMC9936145, “Discovery of a cytochrome P450 enzyme catalyzing the formation of spirooxindole alkaloid scaffold” (Frontiers in Plant Science, 2023).

The assay concerns 3eCIS (MsCYP72056). To be noted: 250 µM NADPH; HEPES pH 7.5; 0-300 µM hirsuteine; CPR co-expressed.

In the case of `C=C[C@H]1CN2CCc3c([nH]c4ccccc34)[C@H]2C[C@@H]1/C(=C\OC)C(=O)OC` [hirsuteine], the Km was determined as 68.3 µM.

As usually defined, the Km is the concentration of substrate that gives half-maximal velocity.
